Values joined by “and” are separate entries in the source; they are usually repeats but may differ in a detail not shown here. Equal values may be shown once.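 Results reflect a 48-hour exposure of cells in 96-well plates to compound at five concentrations. GI50 = concentration required for 50% inhibition of growth. Definition used: TGI = concentration required for complete inhibition of growth.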 *1 amine or outer side, *2 acyl side, *3 side chain or, on linkers, in order; H or OH if unused. Where a SMILES comes first, the peptide text is derived from it. [ ]: non-standard residue; d: D form. The star is where a group is joined. X11 = C/C=C/CC(C)C(O)[C@H](N[*:1])C(=O)[*:2]; Leu(ol) = CC(C)C[C@H](N)CO; Iva = CC[C@](C)(N)C(=O)O; Octanoyl = CCCCCCCC(=O)*; Aib = CC(C)(N)C(=O)O

The test system of the test is MDA-MB-468 breast. Kind of test: growth of human tumour cells (NCI), 48 h.
Regarding `O=C(NCCCO)c1cc(Cl)ccc1O`, the GI50 is 1.19 µM and the TGI was found to be 7.18 µM.
On the same counts, the results for `[N-]=[N+]=NCCCCCC(=O)OC(C(=O)c1ccccc1)c1cccc(OCC(=O)NCCOCCOCCNC(=O)CCCC[C@@H]2SC[C@@H]3NC(=O)N[C@@H]32)c1` (stereo not given in full) are 27.5 µM and > 100 µM.
For `O=Nc1ccc(NO)c2ccccc12`, the GI50 was 13.9 µM and the TGI amounted to 44.4 µM.
With `CC(C)(C)c1cc(-n2c(-c3ccc(Cl)cc3)nc3cc(C(=O)Nc4ccc(Cl)cc4)ccc32)n[nH]1`, the GI50 is 4.88 µM and the TGI is > 100 µM.
On the same counts, the results for `O=c1cc(-c2cccc3c2Sc2ccccc2S3)oc(N2CCOCC2)c1` are 2.8 µM and 14.5 µM.
The corresponding values for `NCCOCCOCCNc1nc(-c2ccccc2)nc(N2CCN(c3ccccn3)CC2)n1` are 7.23 µM and 20.6 µM.
On the same counts, the results for `COC(=O)c1cc(O)c2cc3c(cc2c1-c1cc(OC)c(OC)c(OC)c1)OCO3` are 0.411 µM and 44.7 µM.
For `C/C=C/CC(C)C(O)[C@H](NC(=O)[C@@H]1CCCN1C(=O)C(C)(C)NC(=O)CCCCCCC)C(=O)N[C@@](C)(CC)C(=O)N[C@@H](CCC(N)=O)C(=O)N[C@H](CCC(N)=O)C(=O)NC(C)(C)C(=O)NC(C)(C)C(=O)N[C@@H](CCC(N)=O)C(=O)N[C@H](CC(C)C)C(=O)N[C@H](CO)CC(C)C` (stereo partly drawn) (Octanoyl-[Aib]P[X11][Iva]Q[dQ][Aib][Aib]Q[dL][Leu(ol)]), the GI50 is 1.68 µM and the TGI was 3.35 µM.
On the same counts, the results for `CC(=O)C1=C(O)C=C2Oc3c(C(=O)/C=C/c4c(Cl)cccc4Cl)c(O)c(C)c(O)c3[C@]2(C)C1=O` are 1.19 µM and 4.89 µM.
On to `c1ccc(CN2COc3c(ccc4c3OCN(Cc3ccccc3)C4)C2)cc1`, for which the GI50 is 0.796 µM and the TGI is 5.2 µM.
The corresponding values for `CNC(=O)c1ccccc1Nc1nc(Nc2cc(OC)c(OC)c(OC)c2)ncc1Br` are 0.0782 µM and 0.625 µM.
The corresponding values for `COc1cc(-c2cc(O)c(-c3ccc4ccccc4n3)c(=O)[nH]2)cc(OC)c1OC` are 3.38 µM and 26 µM.
Take `Cc1nc(-c2cn3c(n2)-c2ccc(-c4cnn(C(C)(C)C(N)=O)c4)cc2OCC3)n(C(C)C)n1`: the GI50 is 0.134 µM and 0.0499 µM; the TGI is 1.55 µM and 0.822 µM.
`Cc1nc2ccccc2c(/C=C/c2ccc(Cl)cc2)c1C(=O)/C=C/c1ccc(C(F)(F)F)cc1`: the GI50 was 1.3 µM and the TGI amounted to 2.93 µM.
For `O=C(O)C1(C(=O)O)CCC1.[NH2-].[NH2-].[Pt+2]`, the GI50 is 43.7 µM and the TGI is > 216 µM.
On the same counts, the results for `CN(Cc1ccccc1)c1ccc(CO)c(Cl)c1` are 0.0795 µM and 0.248 µM.
On the same counts, the results for `Cc1nnc(-c2cccc(-c3ccc(C(=O)NCC4CC4)cc3)c2)o1` are > 25 µM and > 25 µM.
The corresponding values for `CC(=O)c1c(C)[nH]c(-c2nc3ccc(N4CCN(C)CC4)cc3[nH]2)c1-c1ccc(N(C)C)cc1` are 0.2 µM and 2.89 µM.
For the compound `C=C1CCC2C3(C)COC(c4ccccc4)OC3CCC2(C)C1/C=C/C1=CCOC1=O` (stereo not given), the GI50 was 2.49 µM and the TGI turned out to be 6.41 µM.
On the same counts, the results for `C=CC(=O)Nc1cc(C)ccc1Nc1nc(Nc2cc(OC)ncc2C)ncc1C(F)(F)F` are 1.86 µM and 6.06 µM.
On the same counts, the results for `O=C(Nc1ccc(-n2ccc3c(NC(=O)c4ccccc4)ncnc32)cc1)Nc1ccc(Cl)c(Cl)c1` are 1.92 µM and 8.04 µM.
The corresponding values for `CCN(CC)CCCNCc1cc(-c2ccccc2)nc2ccccc12` are 14.8 µM and 30.8 µM.
As for `CC(C)=CCC/C(C)=C/CC/C(C)=C/CSc1ccccc1C(=O)O`, the GI50 is 27.5 µM and the TGI was > 90 µM.
On the same counts, the results for `Cc1cc(N2CCOCC2)nc(N[C@@H]2CCC[C@H](Nc3ccnc4cc(Cl)ccc34)C2)n1` are 1.76 µM and 4.04 µM.
Turning to `COc1cc(NCCCN=C(N)NC(N)=NC(C)C)c2ncccc2c1`, the GI50 was 0.112 µM and the TGI amounted to 0.501 µM.
On the same counts, the results for `O=C(Cc1ccc(F)c(F)c1)Nc1cc(C2(C(F)(F)F)CC2)nn1Cc1ccccc1` are 2.67 µM and 9.41 µM.
The corresponding values for `C=CCN(C)S(=O)(=O)/N=C1\NC(=O)NC1=C(Cl)Cl` are 0.578 µM and 15.6 µM.
Turning to `COc1ccc2c(=O)cc(C(Cl)(Cl)Cl)oc2c1`, the GI50 is 0.383 µM and the TGI was determined as 14.4 µM.
On the same counts, the results for `COc1ccc([C@@H]2C(=O)N(c3cc(OC)c(OC)c(OC)c3)[C@H]2c2ccc(OC)c(O)c2)cc1` are 0.0245 µM and 0.0671 µM.
On the same counts, the results for `O=C(c1ccccc1)C(CN1CCCCC1)c1ccccc1` (stereo not given) are 0.536 µM and 1.9 µM.
Take `Oc1ccc(-c2nc3ccccc3s2)cc1CN(Cc1ccccn1)Cc1ccccn1`: the GI50 was 2.48 µM and the TGI came out at 17 µM.
On to `O=C(COc1cc(O)c2c(=O)cc(-c3ccccc3)oc2c1)Nc1ccccc1C(F)(F)F`, for which the GI50 was 4.95 µM and the TGI amounted to 35.8 µM.
The corresponding values for `O=C1C=CC(=Nc2cc(Br)c(O)c(Br)c2)C=C1` are 10.5 µM and 30.5 µM.
On the same counts, the results for `O=C(c1ccccc1)C1OC1c1ccc([N+](=O)[O-])cc1` (stereo not given) are 2.28 µM and 6.79 µM.
On the same counts, the results for `CCN(CC)CC(O)CNc1c2ccc([N+](=O)[O-])cc2nc2cc(OC)c(OC)cc12` (stereo not given) are 0.172 µM and 0.475 µM.
For `C[n+]1c2cc(N)ccc2cc2ccc(N)cc21`, the GI50 was 342 nM [middle of 4 runs].
With `Nc1c(C(=O)Nc2cccc(F)c2)sc2nc3c(cc12)C(=O)CCC3`, the GI50 is 0.159 µM and the TGI is > 100 µM.
In the case of `COCc1cc(C(=O)Nc2cc([C@H]3CC[C@@H](OC(=O)NC(C)C)C3)[nH]n2)n(C)n1`, the GI50 is 13.5 µM and the TGI was 35 µM.
The corresponding values for `COc1cccc(NC(=O)c2sc3nc(C)c(C(O)c4ccccc4)cc3c2N)c1` (stereo not given) are 0.27 µM and 30.2 µM.
On the same counts, the results for `O=C(Nc1ccncc1)C(=O)c1cn(S(=O)(=O)c2ccc(Cl)cc2)c2ccccc12` are 0.746 µM and 9.11 µM.
On the same counts, the results for `CS(=O)(=O)CCc1cccc(C(=O)c2cnn(-c3ccc(F)cc3)c2N)c1` are > 25 µM and > 25 µM.
As to `O=C(CCC(=O)N1CCOCC1)OCCCCCCSc1ccc([N+](=O)[O-])c2nonc12`, the GI50 was 1.11 µM and the TGI is 2.9 µM.
As for `CC(C)=CCC[C@](C)(O)[C@H]1CC[C@]2(C)[C@@H]1CC[C@@H]1[C@@]3(C)CC/C(=N/O)C(C)(C)[C@@H]3CC[C@]12C`, the GI50 is 8.7 µM and the TGI was determined as 71.3 µM.

The record behind these values is PubChem BioAssay (NCI).
